Laboratory results: patent US10933067B2, “Nucleoside derivative having physiological activity such as antiviral activity” (NATIONAL CENTER FOR GLOBAL HEALTH AND MEDICINE, priority 2016, dated 2021)
Like-named read-outs stand apart in the source and are kept apart here.

Tests used:
Format in all cases: cell-based
[1] = tested on: HIV-1 LAI; assay: Evaluation of anti-HIV activity (MT-2 cells exposed to HIV-1 LAI, MTT assay); conditions: Human immunodeficiency virus 1, MT2, 168 h, 7 days, read-out: Antiviral activity, EC50 HIV-1
Text: HIV-1 LAI was used as a wild-type HIV-1 molecular clone. In addition, MT-2 cells were used as cells to be infected. These cells were continuously cultured and maintained in a RPMI-1640 medium containing 10% FCS and supplemented with the aforementioned antibiotics. The MT-2 cells were exposed to HIV-1 LAI virus in an amount of 50 times the 50% infectious concentration (TCID 50), and the resultant MT-2 cells and a medium supplemented with each of the nucleoside derivatives at each of concentrations after serial dilution were together seeded into each cell of a 96-well cell culture dish at a concentration of 1×10^4 cells/mL. Then, after culturing for 7 days in the presence of each nucleoside derivative under standard culture conditions of 37° C. and 5% CO2, the number of live cells in each well was quantified by MTT assay. Based on the numbers of live cells obtained, the EC50 value was calculated and the anti-HIV activity of each nucleoside derivative was evaluated.

[2] = tested on: HBV; assay: Evaluation of anti-HBV activity (HepG2 2.2.15.7 cells, HBV DNA qPCR); conditions: Hepatitis B virus
Experimental: HepG2 2.2.15.7 cells were used as test cells. The HepG2 2.2.15.7 cells were prepared by using, as parent cell lines, HepG2 2.2.15 cells prepared so as to continuously produce HBV by introducing the HBV genes into human hepatoma cell lines (HepG2 cells). Meanwhile, the HepG2 2.2.15.7 cells were maintained by continuous culturing in DMEM containing 10% fetal calf serum, G418 (500 μg/ml), and antibiotics (penicillin and kanamycin).
The HepG2 2.2.15.7 cells are HBV continuously producing cells that carry not only genomically integrated DNAs, but also HBV genes produced as episomes. Therefore, the HepG2 2.2.15.7 cells were co-cultured with each nucleoside derivative, the DNA copy number of viruses released into the culture supernatant and the DNA copy number of the viruses present in the HepG2 2.2.15.7 cells were quantified, and a degree of decrease thereof was used as an index of the evaluation of the anti-HBV activity.
More specifically, the epG2 2.2.15.7 cells with a cell viability of 90% or more were seeded in a collagen-coated 96-well cell culture dish at a concentration of 2×10^4 cells/ml, and each nucleoside derivative was added at various concentrations at the same day as the cell seeding. After culturing for 3 days under the standard culture conditions of 37° C. and 5% CO2, the medium was exchanged to a fresh medium containing each nucleoside derivative, and HBV DNA was collected from the culture supernatant on the third day after the exchange for a 1W assay (an assay on day 7 from the start of culture). In addition, a fresh medium containing each nucleoside derivative was further added to the cell plate after the collection of the supernatant, and the culture was further continued for 7 days. For a 2W assay (an assay on day 14 from the start of culture), intracellular HBV DNAs were collected from the HepG2 2.2.15.7 cells. Using these DNAs as a template, the quantitative PCR was performed to find the virus copy number from the calibration curve, and the 50% effect (EC50) for each nucleoside derivative was calculated.
The DNA extractions from the supernatant of the HepG2 2.2.15.7 cells and from inside the cells were carried out using QIAamp Mini Elute virus Spin Kit (manufactured by QIAGEN), and 5 μL of the extracted DNAs was used for the qPCR. The PCR reaction was conducted by using a specific TaqMan probe primer, manufactured by Primer Design Ltd., which detects the HBV core protein region. The PCR reaction was carried out at 95° C. for 15 minutes, followed by 50 cycles of 95° C. for 10 seconds and 60° C. for 60 seconds. The obtained CT was converted to the HBV copy number using a calibration curve obtained from reactions in which HBV DNA fragments at a known concentration were diluted every 10-fold (from to 2×10^8 copies).

[3] = Cytotoxicity test 1, MT-2 cells (MTT assay); conditions: human
Experimental: (§1) The above nucleoside derivatives were also subjected to cytotoxicity tests on the MT-2 cells and HepG2 cells. Together with the medium to which each nucleoside derivative at each concentration after serial dilution was added, the MT-2 cells were seeded at a concentration of 1×10^4, whereas the HepG2 cells were seeded at a concentration of 1×10^4. Thus, these cells were cultured in the presence of each nucleoside derivative at various concentrations for 7 days under the standard culture conditions of 37° C. and 5% CO2, and thereafter the number of live cells in each well was quantified by an MTT assay. Based on the numbers of live cells obtained, the CC50 was calculated for each nucleoside derivative.

[4] = Cytotoxicity test 1, HepG2 cells (MTT assay); conditions: human
Experimental: as §1

[5] = tested on: ETV resistant strain (genotype: HBV/Ce); assay: Evaluation of anti-HBV/Ce activity (Huh-7 cells transfected with ETV resistant strain, Southern blot); conditions: Hepatitis B virus, Huh-7, 72 h, read-out: Antiviral activity, EC50 HBV ETVr
Experimental: Regarding the above nucleoside derivatives, each nucleoside derivative was added to Huh-7 cells transfected with an ETV resistant strain (genotype: HBV/Ce, referred to as “HBV ETVr” in Table 1). After 72 hours from the addition, DNAs were extracted from the cells according to a conventional method, and analyzed by Southern blot using a probe for the HBV gene. Thus, the DNA copy number of the viruses was quantified, and the EC50 value was calculated in the same way as described above.

[6] = Cytotoxicity test 2, PXB cells (MTT assay); conditions: PXB cells (fresh human hepatocytes)
Experimental: PXB cells were used as test cells. PXB cells were fresh human hepatocytes isolated from chimeric mice with humanized liver and were maintained in a dHCGM medium for PXB cells. Both the cells and the medium are made by PhoenixBio Co., Ltd.
The PXB cells were seeded at 3×10^5 cells/ml on a collagen-coated 96-well plate and cultured together with each compound at each concentration after stepwise dilution for 7 days under the standard culture conditions of 37° C. and 5% CO2, and thereafter the number of live cells in each well was quantified by an MTT assay. Based on the obtained values, the degree of cytotoxicity was determined, and the CC50 value was calculated as the cytotoxicity of each compound.

[7] = 336 h, day 14, intracellular HBV DNA, read-out: Antiviral activity, EC50 HBV 2W assay

| Compound | EC50 [1] [µM] | EC50 [2, 7] [µM] | CC50 at 7 days [3] [µM] | CC50 at 7 days [4] [µM] | EC50 ([2]; 168 h, day 7, HBV DNA in culture supernatant, read-out: Antiviral activity, EC50 HBV 1W assay) [µM] | EC50 [5] [µM] | CC50 at 7 days [6] [µM] |
| --- | --- | --- | --- | --- | --- | --- | --- |
| C=C1[C@@H](n2cnc3c(=O)[nH]c(N)nc32)C[C@H](O)[C@]1(CO)CF | > 1 | 0.09 | > 100 | > 100 |  |  |  |
| C=C1[C@@H](n2cnc3c(=O)[nH]c(N)nc32)C[C@H](O)[C@@]1(O)CO | > 1 | 0.01 | > 100 | 67 |  |  |  |
| C=C[C@]1(CO)C(=C)[C@@H](n2cnc3c(=O)[nH]c(N)nc32)C[C@@H]1O | > 1 | > 1 | > 100 | > 100 |  |  |  |
| C#C[C@]1(CO)C(=C)[C@@H](n2cnc3c(=O)[nH]c(N)nc32)C[C@@H]1O | 0.027 | > 1 | > 100 | > 100 |  |  |  |
| N#C[C@]1(CO)/C(=C\F)[C@@H](n2cnc3c(=O)[nH]c(N)nc32)C[C@@H]1O [(1S,3S,5S,E)-3-(2-Amino-6-oxo-1,6-dihydro-9H-purin-9-yl)-2-(fluoromethylene)-5-hydroxy-1-(hydroxymethyl)cyclopentane-1-carbonitrile] | 0.02 | 0.007 | > 100 | 50 | 0.003 | 0.0653 | > 100 |
| C=C1[C@@H](n2cnc3c(=O)[nH]c(N)nc32)C[C@H](O)[C@@]1(C#N)CO | 0.16 | 0.03 | > 100 | 89 |  |  |  |
